Measured values from patent US20220175761A1, “BI-LIGAND DRUG CONJUGATE AND USE THEREOF” (COHERENT BIOPHARMA (SUZHOU), LIMITED, priority 2019, published 2022).
Numbered stars: 1 amine (or outer) side, 2 acyl side, 3 side chain; on linkers, the order of the positions; unused ones are H or OH. Square brackets hold non-standard residues; d marks the D form. Peptide text beside a SMILES is read from it. * marks the point of attachment. ξ: configuration not given here. X6 = CCc1c2c(nc3ccc(O)cc13)-c1cc3c(c(=O)n1C2)COC(=O)[C@@]3(CC)OC(=O)OCc1ccc(NC(=O)COCC(=O)NCCOCCOCCOCCOCCOCCn2nncc2CNC(=O)CCCCCN2C(=O)CC(*)C2=O)cc1; Pteroyl = Nc1nc2ncc(CNc3ccc(C(=O)*)cc3)nc2c(=O)[nH]1; γGlu = O=C(O)[C@H](CCC(=O)[*:2])N[*:1]; ξV = CC(C)C(N)C(=O)O

Assays:
[1] = test system: KB, LNCaP, T-47D, RT4 and NCI-H460 tumor cell lines; experiment: Inhibition of tumor cell expansion, CCK8 (CB-10S); assay type: cell-based, human
Description: Cell lines: KB human oral epidermoid carcinoma cells, NCI-H460 human lung cancer cells, RT4 human bladder cancer cells, T-47D human breast cancer cells and LNcap human prostate cancer cells
The cells were prepared in advance, digested with trypsin, collected and counted; with a complete cell culture medium, KB cells were diluted to 3.5×10^4 cells/ml, LNCaP cells were diluted to 8.0×10^4 cells/ml, T-47D cells were diluted to 1.2×10^4 cells/ml, NCI-H460 cells were diluted to 2.5×10^4 cells/ml, and RT4 cells were diluted to 1.2×10^4 cells/ml; to each well of 96-well plates, 100 μl of the diluted cell solution was added; and negative control and blank control wells were set on each plate. The 96-well plates added with the cells were placed in an incubator at 37° C., 5% CO2 for culturing overnight.
The samples were diluted with a culture medium to desired concentrations (see Table 12). […]
(§1) To each well, 15 μl (10% of the liquid volume in a well) of a color developing solution from CCK-8 was added; the plates were incubated at 37° C. for an appropriate time (try to keep the OD value in the range of 1.0-2.0); the covers of the 96-well plates were removed, and the plates were read at 450 nm on a microplate reader (Molecular Devices Spectra MAX Plus). […]

[2] = test system: KB, T-47D, NCI-H460, CALU-3, HuH-7, and LNCaP tumor cell lines; experiment: Inhibition of tumor cell expansion, CCK8 (CB-60SK); assay type: cell-based, human
Description: (§2) Cell lines: KB human oral epidermoid carcinoma cells, T-47D human breast cancer cells, NCI-H460 human lung cancer cells, CALU-3 human lung adenocarcinoma cells, HuH-7 human liver cancer cells and LNCaP human prostate cancer cells
(§3) The cells were prepared in advance, digested with trypsin, collected and counted; with a complete cell culture medium, KB cells were diluted to 2.5×10^4 cells/ml, T-47D cells were diluted to 1.3×10^4 cells/ml, NCI-H460 cells were diluted to 3.5×10^4 cells/ml, CALU-3 cells were diluted to 4.0×10^4 cells/ml, HuH-7 cells were diluted to 3.0×10^4 cells/ml, and LNCaP cells were diluted to 8.0×10^4 cells/ml; 100 μl of the diluted cell solution was added to each well; and negative control and blank control wells were set on each plate. The 96-well plates added with the cells were placed in an incubator at 37° C., 5% CO2 for culturing overnight.
The samples were diluted with a culture medium to desired concentrations (see Table 14). […]
as §1

[3] = test system: KB, T-47D, NCI-H460, CALU-3, HuH-7, and LNCaP tumor cell lines; experiment: Inhibition of tumor cell expansion, CCK8 (CB-60S); assay type: cell-based, human
Description: as §2
as §3, with “2.0×10^4” for “2.5×10^4”, “1.5×10^4” for “1.3×10^4”, “2.0×10^4” for “3.5×10^4”, “3.0×10^4” for “4.0×10^4”, “4.0×10^4” for “3.0×10^4”, “well of 96-well plates;” for “well;”
The samples were diluted with a culture medium to desired concentrations (see Table 13). […]
as §1

[4] = biological target: T1, FOLR1 (Homo sapiens, UniProt P15328); experiment: BIAcore T200 binding affinity to FOLR1 (CM5 chip conjugated with FOLR1)
T1 construct: purchased R&D System 5646-FR
T1 sequence (P15328 25-233 limits assumed): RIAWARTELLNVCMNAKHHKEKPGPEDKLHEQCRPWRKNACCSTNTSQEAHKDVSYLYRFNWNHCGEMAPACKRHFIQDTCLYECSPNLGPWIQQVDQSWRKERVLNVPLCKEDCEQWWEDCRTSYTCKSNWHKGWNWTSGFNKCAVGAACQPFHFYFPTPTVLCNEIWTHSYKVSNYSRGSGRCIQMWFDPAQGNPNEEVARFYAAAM
Source text: Buffer: HBS-EP+ buffer 10× (GE, Cat #: BR100669), diluted 10 folds with deionized water before use.
In the experiment, CM5 chip was conjugated with ligand FOLR1 (R&D System, Cat #: 5646-FR).

[5] = test system: 22RV1 (human prostate cancer cells); experiment: Inhibition of cell line proliferation, CCK8; assay type: cell-based
Source text: (§4) Since different cells have different sensitivity to a cell proliferation inhibitory toxicity of the payload in a ligand conjugate, the quantitative analysis may be interfered occasionally. A series of cell lines with known expression levels of receptors of different ligands were selected and tested for the response to inhibitory effects of the cell proliferation of a ligand conjugate and a single payload. The IC50 ratio of a single payload to that of a ligand conjugate in same cell line were taken to remove such interference.
(§5) Experimental operations: LNCaP and 22RV1 cells were prepared in advance, counted, and plated in 96-well cell culture plates at a cell density of 4×10^4 cells/ml and 2.0×10^4 cells/ml, respectively (100 μl/well); negative control and blank control wells were set on each plate. After adherent cell culture overnight, the diluted samples to be tested were added at 50 μl/well. The plates were placed in an incubator at 37° C., 5% CO2 and cultured for 68-72 hours. To each well, 15 μl (10% of the liquid volume in a well) of a color developing solution from CCK8 was added; and the plates were incubated at 37° C. for 45-70 minutes and each plate was read at 450 nm on a microplate reader. The data was edited using SoftMax Pro and a 4-P fitting curve was plotted.

[6] = biological target: FOLH1 (Homo sapiens, UniProt Q04609); experiment: BIAcore T200: binding of FOLH1 to compound-FOLR1 complex; parameters: purchased Sino Biologicals (FOLH1); R&D System (FOLR1) 15877-H07H (FOLH1); 5646-FR (FOLR1)
Chain of FOLH1 (Q04609 44-750 limits assumed): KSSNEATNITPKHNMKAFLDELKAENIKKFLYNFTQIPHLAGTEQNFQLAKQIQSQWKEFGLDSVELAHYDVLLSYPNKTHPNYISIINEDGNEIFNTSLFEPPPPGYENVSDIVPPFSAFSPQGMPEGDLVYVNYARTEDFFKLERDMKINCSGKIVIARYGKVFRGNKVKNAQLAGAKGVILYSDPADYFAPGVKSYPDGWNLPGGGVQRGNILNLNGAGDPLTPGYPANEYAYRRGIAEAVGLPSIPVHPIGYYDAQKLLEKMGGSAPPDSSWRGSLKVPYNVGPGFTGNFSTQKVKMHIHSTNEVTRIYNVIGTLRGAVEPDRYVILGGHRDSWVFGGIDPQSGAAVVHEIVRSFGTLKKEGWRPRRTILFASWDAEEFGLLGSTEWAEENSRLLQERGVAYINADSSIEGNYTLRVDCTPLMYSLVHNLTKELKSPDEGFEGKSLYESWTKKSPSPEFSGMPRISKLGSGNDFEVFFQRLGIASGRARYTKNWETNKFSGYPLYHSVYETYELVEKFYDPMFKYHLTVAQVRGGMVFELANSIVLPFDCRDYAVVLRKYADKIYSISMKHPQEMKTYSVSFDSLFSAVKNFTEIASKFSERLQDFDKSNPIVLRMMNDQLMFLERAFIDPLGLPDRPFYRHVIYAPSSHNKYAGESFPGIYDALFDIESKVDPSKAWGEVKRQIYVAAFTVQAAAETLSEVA
Chain of FOLH1 (P15328 25-233 partner limits assumed): as the sequence (P15328 25-233 limits assumed) above
Source text: CM5 chip was conjugated with a ligand: FOLR1 (R&D System, Cat #: 5646-FR)
Analyte: CB-20BK, FA-MMAE and FOLH1 (Sino Biologicals, Cat #: 15877-H07H)
According to BIAcore T200 (GE) operating manual, FOLR1 was conjugated to the CM5 chip; CB-20BK or FA-MMAE was loaded first, and then FOLH1 was loaded; and the binding of FOLH1 to the CB-20BK-FOLR1 complex was detected.

[7] = test system: LNCaP (human prostate cancer cells); experiment: Inhibition of cell line proliferation, CCK8; assay type: cell-based
Source text: as §4
as §5, with “plotted. […]” for “plotted.”

CCc1c2c(nc3ccc(O)cc13)-c1cc3c(c(=O)n1C2)COC(=O)[C@@]3(CC)OC(=O)OCc1ccc(NC(=O)COCC(=O)NCCOCCOCCOCCOCCOCCn2nncc2CNC(=O)CCCCCN2C(=O)CC(SC[C@H](NC(=O)CC[C@H](NC(=O)c3ccc(NCc4cnc5[nH]c(N)nc(=O)c5n4)cc3)C(=O)O)C(=O)N[C@@H](CCCCN)C(=O)N[C@@H](CCC(=O)O)C(=O)N[C@@H](Cc3ccccc3)C(=O)N[C@@H](CC(C)C)C(=O)N[C@@H](Cc3cnc[nH]3)C(=O)N3CCC[C@H]3C(=O)N[C@@H](CO)C(=O)N[C@@H](CCCCN)C(=O)NC(C(=O)N[C@@H](CC(=O)O)C(=O)N[C@@H](CC(C)C)C(=O)N3CCC[C@H]3C(=O)N[C@@H](CCCNC(=N)N)C(=O)O)C(C)C)C2=O)cc1 (stereo partly drawn) [CB-10S] ({Pteroyl-γGlu}-C(X6)KEFLHPSK[ξV]DLPR-OH)
inhibitory effect on growth and expansion of tumor cell lines ([1]; 72 hours, CCK-8): has an inhibitory effect | IC50 compared between cell lines ([1]; KB, LNcap, T-47D and RT4 versus NCI-H460): significantly lower

CCc1c2c(nc3ccc(O)cc13)-c1cc3c(c(=O)n1C2)COC(=O)[C@@]3(CC)OC(=O)OCc1ccc(NC(=O)[C@H](CCCNC(N)=O)NC(=O)COCC(=O)NCCOCCOCCOCCOCCOCCn2cc(C[C@H](NC(=O)[C@H](CCCCN)NC(=O)[C@H](CC(=O)O)NC(=O)[C@H](CC(=O)O)NC(=O)Cc3ccc(CNC(=O)NCCCC[C@H](NC(=O)N[C@@H](CCC(=O)O)C(=O)O)C(=O)O)cc3)C(=O)N[C@@H](CCCCNC(=O)CC[C@H](NC(=O)c3ccc(NCc4cnc5[nH]c(N)nc(=O)c5n4)cc3)C(=O)O)C(N)=O)nn2)cc1 [CB-60SK]
inhibitory effect on growth and expansion of tumor cell lines ([2]; 72 hours, CCK-8): has an inhibitory effect | IC50 compared between cell lines ([2]; LNCaP and HuH-7 versus T-47D, NCI-H460, CALU-3 and KB): significantly lower

CCc1c2c(nc3ccc(O)cc13)-c1cc3c(c(=O)n1C2)COC(=O)[C@@]3(CC)OC(=O)OCc1ccc(NC(=O)[C@H](CCCNC(N)=O)NC(=O)COCC(=O)NCCOCCOCCOCCOCCOCCn2cc(C[C@H](NC(=O)[C@H](CC(=O)O)NC(=O)[C@H](CC(=O)O)NC(=O)Cc3ccc(CNC(=O)NCCCC[C@H](NC(=O)N[C@@H](CCC(=O)O)C(=O)O)C(=O)O)cc3)C(=O)N[C@@H](CCCCNC(=O)CC[C@H](NC(=O)c3ccc(NCc4cnc5[nH]c(N)nc(=O)c5n4)cc3)C(=O)O)C(N)=O)nn2)cc1 [CB-60S]
inhibitory effect on growth and expansion of tumor cell lines ([3]; 72 hours, CCK-8): has an inhibitory effect | IC50 compared between cell lines ([3]; LNCaP and HuH-7 versus NCI-H460, KB, T-47D and CALU-3): significantly lower

CC[C@@]1(O)C(=O)OCc2c1cc1n(c2=O)Cc2c-1nc1cc(F)c(C)c3c1c2[C@@H](NC(=O)COCNC(=O)CNC(=O)[C@H](Cc1ccccc1)NC(=O)CNC(=O)CNC(=O)CCCCCN1C(=O)CC(SC[C@H](NC(=O)CC[C@H](NC(=O)c2ccc(NCc4cnc5[nH]c(N)nc(=O)c5n4)cc2)C(=O)O)C(=O)N[C@@H](CCCCN)C(N)=O)C1=O)CC3 (stereo partly drawn) [FA-MMAE, reference compound]
kd ([4]; FOLR1 on CM5 chip, N/D = no specific binding was detected): 0.000115 s⁻¹ | kon ([4]; read-out: ka): 1.79e+06 M⁻¹ s⁻¹ | IC50 ratio (MMAE/conjugate) ([5]; 22RV1): 0.006 | IC50 ([5]; 22RV1, 68-72 hours, CCK8): 1010 nM | Binding of compound-FOLR1 complex to FOLH1 solution ([6]; FOLH1 concentration 0.0625 μM): −1 RU | Binding of compound-FOLR1 complex to FOLH1 solution ([6]; FOLH1 concentration 0.125 μM): 4.2 RU | Binding of compound-FOLR1 complex to FOLH1 solution ([6]; FOLH1 concentration 0.25 μM): 8.4 RU | Binding of compound-FOLR1 complex to FOLH1 solution ([6]; FOLH1 concentration 0.5 μM): 9.8 RU | amount of FOLH1 bound to compound-FOLR1 complex (in words) ([6]; FOLH1 solution at a high concentration): tends to saturate at a high concentration | IC50 ratio (MMAE/conjugate) ([7]; LNCaP): 0.010 | IC50 ratio in LNCaP relative to IC50 ratio in 22RV1 (times higher / factor) ([7]; LNCaP versus 22RV1): 1.5 | IC50 ([7]; LNCaP, 68-72 hours, CCK8): 264 nM
